These results are taken from patent publication US10017480B2, “Compounds having a selective PDE4D inhibiting activity” (UNIVERSITÂ DEGLI STUDI DI GENOVA, priority 2014, dated 2018).

One series addresses PDE4D1 (Homo sapiens, UniProt Q08499). Put plainly: PDE4D1 enzyme inhibition (IMAP). In kind it is biochemical.
Another series concerns the target PDE4D2 (Homo sapiens, UniProt Q08499). Put plainly: PDE4D2 enzyme inhibition (IMAP). In kind it is biochemical.
The next series has as its target PDE4D3 (Homo sapiens, UniProt Q08499). The experiment in a line: PDE4D3 enzyme inhibition (IMAP). In kind it is biochemical. The following applies: for PDE4D3 % inib at 10 μM: in duplicate. As to the method: (§1) Compound's evaluation on PDE4D3, PDE4A4, PDE4B2 and PDE4C2 enzyme assays were performed by Scottish Biomedical (Glasgow, Scotland, UK) using recombinant human PDE enzymes expressed in a baculoviral system. The preliminary screening assays were performed by the IMAP technology (Molecular Devices), which is based on the high affinity binding of phosphate by immobilized metal coordination complexes on nanoparticles. The binding reagent complexes with phosphate groups on nucleotide monophosphate generated from cyclic nucleotides (cAMP) through phosphodiesterases. With fluorescence polarization detection, binding causes a change in the rate of the molecular motion of the phosphate bearing molecule and results in an increase in the fluorescence polarization value observed for the fluorescent label attached to the substrate. […] All compounds were solved in DMSO at 10^−2 M concentration and then diluted with water to the final suitable concentrations. All synthesized compounds were tested preliminary on PDE4D3 at 10^−5 M concentration, in duplicate. Results are expressed as a percent inhibition of control activity (see table 1).
IC50 values are reported at μM concentration in table 1. […] The results are reported (as percent of inhibition at 10 μM concentration) in Table 1.

The next series addresses PDE4A4 (Homo sapiens, UniProt P27815). The experiment in a line: PDE4A4 enzyme inhibition (IMAP). In kind it is biochemical. The following applies: 10 μM. As to the method:
as §1
(§2) The IC50 values obtained for the reference compounds are within accepted limits of historic averages obtained (0.5 log unit). IC50 values are reported at μM concentration in table 1. […] The results are reported (as percent of inhibition at 10 μM concentration) in Table 1.

A further series concerns the target T1, PDE4B2 (Homo sapiens, UniProt Q07343).
T1 construct: purchased Scottish Biomedical (Glasgow, Scotland, UK); host or cells: baculoviral system
The experiment in a line: PDE4B2 enzyme inhibition (IMAP). In kind it is biochemical. Conditions: 10 μM. As to the method:
as §1, §2

The next series deals with T2, PDE4C2 (Homo sapiens, UniProt Q08493).
T2 construct: purchased Scottish Biomedical (Glasgow, Scotland, UK); host or cells: baculoviral system
Put plainly: PDE4C2 enzyme inhibition (IMAP). In kind it is biochemical. As to the method: as §1, §2

Series [1] in a line: Cytotoxicity, lactate-dehydrogenase release. In kind it is cell-based. Conditions: human, HTLA human neuronal cells. The protocol: To evaluate the preliminary toxic profile of the molecule XVIIIa, we performed cytotoxicity and genotoxicity assays on human neuronal cells (HTLA). For the cytotoxic potential, we analyzed the lactate-dehydrogenase release in cells exposed for 24 hours to high concentrations (100 μM) of XVIIIa or GEBR-7b (lead compound—Bruno et al, Br. J. Pharm., 2011, 164:2054).

A further series relates to HTLA cells. Put plainly: Genotoxicity, Western blot of γ-H2AX. In kind it is cell-based, human. Conditions: 100 μM. The source says: To evaluate the genotoxic potential of XVIIIa and GEBR-7b, we analyzed the phosphorylation of the chromatin-bound histone H2AX (γ-H2AX), which is a quantitative marker for the DNA damage response at the site of double-strand breaks.
The H2AX signal represents the internal loading control.

Series [2] concerns extracellular cAMP in the hippocampus of freely moving rats. The experiment in a line: In vivo cAMP-enhancing potential, intracerebral microdialysis. As to the method:
The in vivo effects of XVIIIa on extracellular cAMP levels in the hippocampus of freely moving rats were analyzed by means of intracerebral microdialysis.
However, when the PDE4D inhibitor was infused at the concentration of 100 μM, a marked cAMP response could be observed (40-80% over basal values) as reported in FIG. 3. The effects of XVIIIa were similar to those previously reported for the PDE4D inhibitor GEBR-7b (lead compound; data taken from Bruno et al., Br. J. Pharmacol. 2011, 164, 2054-2063).
XVIIIa or GEBR-7b were administered through the probe after 3 consecutive control samples had been collected and were present in the infusion fluid for the time indicated by the horizontal empty bar. Data are expressed as percentages of the mean basal value (defined 100%) that was determined by averaging the cAMP content in the three fractions collected before drug treatment. Each point represents the mean±SEM for 3-6 different experiments.

Series [3] concerns hippocampal slices from Tg2576 mice and WT littermates. The experiment in a line: Electrophysiological study, LTP in hippocampal slices. The following applies: 2 μM, bath, 20 minutes before theta burst stimulation. As to the method:
Compound XVIIIa was tested to determine whether PDE4D inhibition can revert the damage of synaptic function following Aβ elevation in Tg2576 mice.
All experiments were performed with approval of the Columbia University IACUC Committe. The animals were 12 month old single transgenic mice expressing the human APP mutation (K670N,M671L) (a.k.a. Tg2576), as well as their WT littermates.
Slice recordings were performed as described previously (Trinchese et al, Ann Neurol 2004). Briefly, 400-μm slices were cut with a tissue chopper and maintained in an interface chamber at 29° C. for 90 minutes prior to recording. CA1 fEPSPs were recorded by placing both the stimulating and the recording electrodes in CA1 stratum radiatum. Basal synaptic transmission was assayed either by plotting the stimulus voltages against slopes of fEPSP. For LTP experiments, a 10-minute baseline was recorded every minute at an intensity that evokes a response approximately 35% of the maximum evoked response. Baseline was followed by a 20 minute perfusion with the compound prior to eliciting LTP using θ-burst stimulation (4 pulses at 100 Hz, with the bursts repeated at 5 Hz, and each tetanus including 3 ten-burst trains separated by 15 seconds). […]

Series [4] concerns forskolin (FSK)-induced cAMP in neuronal cultured cells. Put plainly: In vitro cAMP-enhancing potential (EIA). Conditions: 100 μM; for basal cAMP levels: without FSK. A general note: cAMP levels reflect the balance of adenylyl cyclase and phosphodiesterase activity.
Series [5] can be described thus: Pharmacokinetic analysis, plasma and brain.
In series [6] the test system is spatial object memory performance. Put plainly: OLT dose-response experiment. The following applies: for d2 (discrimination performance): 24 h interval, mean (SEM). In kind it is in vivo.
In another series the test system is spatial working memory. The experiment in a line: Y-maze continuous alternation task. In kind it is in vivo. The following applies: y-maze 6 min, vehicle 60.36. As to the method:
Working memory function is given by the percentage of alternations made while exploring the y-maze for 6 min. No animals were excluded from the statistical analysis.
One-sample t-tests were performed to compare every condition to 50% alternations, i.e. chance level. […] FIG. 7 gives a graphical overview of the Y-maze alternation performance.

Series [7] has as its system α2-adrenoceptor-mediated anesthesia. Put plainly: Ketamine/xylazine induced α2-adrenoceptor-mediated anesthesia test (emesis surrogate). In kind it is in vivo, mice. The following applies: for Time anesthetized: relative to vehicle (set at 100%). As to the method: A shorter anesthesia time than that of the vehicle condition would implicate emetic-like effects. Anesthesia time was calculated relatively to the vehicle condition, which itself was set at 100%, to control for repeated exposure to the test.

Setting [8] is: brain, male BALB/c mice, 10 mg/kg subcutaneously.
Where [9] appears, read: male, BALB/c, mouse, brain, sc, 10 mg/kg.
[10] abbreviates: male, BALB/c, mouse, plasma, sc, 10 mg/kg.
Where [11] appears, read: plasma, male BALB/c mice, 10 mg/kg subcutaneously.

Marks after values point to notes of the source that are not given here.

PDE4D3, sequence (Q08499 1-673 isoform Q08499-2): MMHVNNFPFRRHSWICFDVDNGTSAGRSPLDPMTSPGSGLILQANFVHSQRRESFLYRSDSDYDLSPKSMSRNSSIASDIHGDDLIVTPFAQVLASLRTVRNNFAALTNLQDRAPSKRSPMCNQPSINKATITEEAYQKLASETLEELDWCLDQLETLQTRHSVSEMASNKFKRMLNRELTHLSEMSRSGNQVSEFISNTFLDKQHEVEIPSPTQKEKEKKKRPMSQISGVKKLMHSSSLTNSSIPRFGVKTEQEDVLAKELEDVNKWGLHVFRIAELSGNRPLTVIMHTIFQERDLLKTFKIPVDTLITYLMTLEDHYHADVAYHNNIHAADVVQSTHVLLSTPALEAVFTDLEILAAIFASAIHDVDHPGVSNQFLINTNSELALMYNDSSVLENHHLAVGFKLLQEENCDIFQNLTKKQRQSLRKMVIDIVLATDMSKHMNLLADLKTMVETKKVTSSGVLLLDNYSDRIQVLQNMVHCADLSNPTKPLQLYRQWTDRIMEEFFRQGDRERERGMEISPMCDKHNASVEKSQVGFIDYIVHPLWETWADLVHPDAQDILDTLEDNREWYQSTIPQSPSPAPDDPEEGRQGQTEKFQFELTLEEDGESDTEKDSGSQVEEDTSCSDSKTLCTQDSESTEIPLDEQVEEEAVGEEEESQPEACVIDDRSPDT
PDE4A4, sequence (P27815 whole entry): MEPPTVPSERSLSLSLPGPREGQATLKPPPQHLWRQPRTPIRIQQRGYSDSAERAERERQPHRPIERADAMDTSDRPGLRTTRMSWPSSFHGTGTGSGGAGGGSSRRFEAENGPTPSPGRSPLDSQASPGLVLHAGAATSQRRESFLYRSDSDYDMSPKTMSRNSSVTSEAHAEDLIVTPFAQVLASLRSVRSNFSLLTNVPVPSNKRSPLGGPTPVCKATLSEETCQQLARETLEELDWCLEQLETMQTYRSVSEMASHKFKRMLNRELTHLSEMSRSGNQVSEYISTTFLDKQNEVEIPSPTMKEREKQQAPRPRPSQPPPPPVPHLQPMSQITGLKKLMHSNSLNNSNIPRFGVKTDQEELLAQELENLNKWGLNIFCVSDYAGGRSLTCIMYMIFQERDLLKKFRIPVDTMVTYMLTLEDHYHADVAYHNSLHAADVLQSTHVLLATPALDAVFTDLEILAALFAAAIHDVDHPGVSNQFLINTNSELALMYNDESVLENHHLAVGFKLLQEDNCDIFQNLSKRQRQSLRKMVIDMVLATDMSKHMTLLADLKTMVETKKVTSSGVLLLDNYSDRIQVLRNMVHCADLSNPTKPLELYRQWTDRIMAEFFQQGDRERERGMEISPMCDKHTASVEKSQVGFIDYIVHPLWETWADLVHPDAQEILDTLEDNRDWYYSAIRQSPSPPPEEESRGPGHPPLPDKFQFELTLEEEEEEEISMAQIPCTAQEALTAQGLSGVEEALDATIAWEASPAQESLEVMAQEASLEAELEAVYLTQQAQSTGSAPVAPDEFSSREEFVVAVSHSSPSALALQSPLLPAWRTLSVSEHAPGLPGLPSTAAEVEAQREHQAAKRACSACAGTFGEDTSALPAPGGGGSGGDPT
T1 sequence (Q07343 1-564 isoform Q07343-2): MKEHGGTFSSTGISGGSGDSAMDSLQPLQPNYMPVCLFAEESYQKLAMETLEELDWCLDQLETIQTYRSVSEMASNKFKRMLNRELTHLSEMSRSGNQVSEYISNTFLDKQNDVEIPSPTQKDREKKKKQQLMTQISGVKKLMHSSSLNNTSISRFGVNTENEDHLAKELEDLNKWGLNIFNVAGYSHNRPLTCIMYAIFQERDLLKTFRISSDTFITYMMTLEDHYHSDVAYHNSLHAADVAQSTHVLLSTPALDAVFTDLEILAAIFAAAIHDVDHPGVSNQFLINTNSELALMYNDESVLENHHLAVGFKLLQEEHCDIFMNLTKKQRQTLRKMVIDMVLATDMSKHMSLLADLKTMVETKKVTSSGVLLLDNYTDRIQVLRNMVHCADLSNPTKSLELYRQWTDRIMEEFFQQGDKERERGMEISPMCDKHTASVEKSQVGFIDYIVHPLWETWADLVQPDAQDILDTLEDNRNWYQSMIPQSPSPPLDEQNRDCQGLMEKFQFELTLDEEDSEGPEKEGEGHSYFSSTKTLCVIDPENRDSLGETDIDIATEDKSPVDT
PDE4D1, sequence (Q08499 1-584 isoform Q08499-4): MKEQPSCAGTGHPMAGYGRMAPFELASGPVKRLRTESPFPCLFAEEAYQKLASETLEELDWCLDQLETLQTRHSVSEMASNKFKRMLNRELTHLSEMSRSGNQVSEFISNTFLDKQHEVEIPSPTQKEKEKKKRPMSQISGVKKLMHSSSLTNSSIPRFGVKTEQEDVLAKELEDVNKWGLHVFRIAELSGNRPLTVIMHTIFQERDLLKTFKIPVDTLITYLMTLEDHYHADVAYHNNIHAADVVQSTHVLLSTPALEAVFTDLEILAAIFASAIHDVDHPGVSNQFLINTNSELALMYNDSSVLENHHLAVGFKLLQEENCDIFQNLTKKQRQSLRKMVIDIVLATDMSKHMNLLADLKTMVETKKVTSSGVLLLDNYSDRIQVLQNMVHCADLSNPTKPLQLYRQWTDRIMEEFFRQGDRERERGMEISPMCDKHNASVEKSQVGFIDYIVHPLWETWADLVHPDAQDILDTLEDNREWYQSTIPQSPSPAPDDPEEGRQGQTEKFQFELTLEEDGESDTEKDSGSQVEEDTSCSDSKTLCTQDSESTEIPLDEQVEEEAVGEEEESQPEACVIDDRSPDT
PDE4D2, sequence (Q08499 303-809 limits assumed): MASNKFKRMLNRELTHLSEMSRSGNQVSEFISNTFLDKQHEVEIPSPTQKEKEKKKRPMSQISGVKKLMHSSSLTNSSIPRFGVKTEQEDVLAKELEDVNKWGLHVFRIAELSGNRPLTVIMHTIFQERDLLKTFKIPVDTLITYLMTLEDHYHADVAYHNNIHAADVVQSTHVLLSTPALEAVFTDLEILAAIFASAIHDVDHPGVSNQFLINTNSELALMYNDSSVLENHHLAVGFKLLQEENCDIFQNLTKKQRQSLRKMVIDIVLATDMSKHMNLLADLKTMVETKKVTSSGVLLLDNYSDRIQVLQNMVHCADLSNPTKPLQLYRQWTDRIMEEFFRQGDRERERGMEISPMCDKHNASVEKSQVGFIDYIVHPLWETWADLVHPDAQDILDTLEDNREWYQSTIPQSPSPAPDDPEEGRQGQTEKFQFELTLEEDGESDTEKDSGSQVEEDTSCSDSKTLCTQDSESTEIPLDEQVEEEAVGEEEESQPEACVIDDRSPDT
T2 sequence (Q08493 107-712): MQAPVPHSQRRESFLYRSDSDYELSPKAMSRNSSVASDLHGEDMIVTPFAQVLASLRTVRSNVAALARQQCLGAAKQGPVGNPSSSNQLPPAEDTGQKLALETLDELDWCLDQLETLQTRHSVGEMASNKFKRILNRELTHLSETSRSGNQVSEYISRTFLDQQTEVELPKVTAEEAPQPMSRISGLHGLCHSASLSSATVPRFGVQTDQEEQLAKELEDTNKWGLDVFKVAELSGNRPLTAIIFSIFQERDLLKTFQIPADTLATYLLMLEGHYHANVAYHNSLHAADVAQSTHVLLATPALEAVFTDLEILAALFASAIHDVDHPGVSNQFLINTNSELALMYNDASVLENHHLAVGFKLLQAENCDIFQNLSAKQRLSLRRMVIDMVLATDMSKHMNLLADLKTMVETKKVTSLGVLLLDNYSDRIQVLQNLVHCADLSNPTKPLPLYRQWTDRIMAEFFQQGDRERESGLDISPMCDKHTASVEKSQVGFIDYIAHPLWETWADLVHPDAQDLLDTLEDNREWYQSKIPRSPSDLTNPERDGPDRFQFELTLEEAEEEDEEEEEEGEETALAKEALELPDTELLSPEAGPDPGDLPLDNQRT

For the compound `COc1ccc(-c2ccn(CC(O)CN3CCOCC3)n2)cc1OC1CCCC1` (stereo not shown) [XVIIIa, 1-{3-[3-(Cyclopentyloxy)-4-methoxyphenyl]-1H-pyrazol-1-yl}-3-morpholin-4-ylpropan-2-ol dihydrocloride], the “PDE4D1 % inib at 10 μM” value at PDE4D1 turned out to be 34%. For the same compound, at PDE4D2, the “PDE4D2 % inib at 10 μM” value amounted to 28%. Further, the “PDE4D3 % inib at 10 μM” value on PDE4D3 is listed as 68%. On PDE4D3 (five concentrations 10^−8-10^−4 M), the midpoint of inhibition, the IC50, lay at 7.6 µM. The “PDE4A4 % inib at 10 μM” value at PDE4A4 is 22%. Further, the “PDE4B2 % inib at 10 μM” value on PDE4B2 worked out at 18%. The “PDE4C2 % inib at 10 μM” value on PDE4C2 is on record as 11%. In series [1], the cytotoxicity at 24 h, 100 µM worked out at 3.3 ± 0.4%. The “DNA damage (γ-H2AX)” value with HTLA cells is “not observed”. Further, the “hippocampal extracellular cAMP” value in series [2] (30 μM by reverse dialysis) is listed as “slight, though not significant, increase”. Further, in [2] (100 μM infused), the “hippocampal extracellular cAMP response” value was 40-80 % over basal values. Also, in [3], the “LTP in WT littermates” value is listed as “without affecting LTP” and the “LTP in hippocampal slices from 12 month-old Tg mice” value is “rescued the defect in LTP”. Besides, the “accumulation of forskolin (FSK)-induced cAMP, fold induction” value in series [4] (10 min pre-treatment, then 1 μM FSK 20 min) amounted to 3 fold. Further, the “basal cAMP levels” value in series [4] is reported as “without affecting the basal cAMP levels”. Also, the AUC0-t in series [5] (setting [8]) stood at 812 ng·h/g. In series [5] (setting [9]), the peak concentration (Cmax) worked out at 936 ng/g, the time to peak (Tmax) is 10.2 min and the half-life is 32.4 min. This compound also returned a concentration ratio (Kp) in series [5] (male, BALB/c, mouse, in vivo, sc, 10 mg/kg) of 0.75. Also, in series [5] (setting [10]), the AUC0-t was 1.89 µg·h/mL, the Cmax was 2.16 µg/mL, the time of peak concentration (Tmax) came out at 10.2 min and the half-life is 49.2 min.
In turn, `COc1ccc(-c2cc(C(O)CN3CC(C)OC(C)C3)on2)cc1OC1CCCC1` (stereo not shown) [XVIb, 1-{3-[3-(Cyclopentyloxy)-4-methoxyphenyl]isoxazol-5-yl}-2-(2,6-dimethylmorpholin-4-yl)ethanol] came in with a melting point of 92 to 94 °C. The “PDE4D1 % inib at 10 μM” value on PDE4D1 was found to be 2%. Besides, the “PDE4D2 % inib at 10 μM” value at PDE4D2 came to 3%. On PDE4D3, the “PDE4D3 % inib at 10 μM” value turned out to be 15%. At PDE4A4, the “PDE4A4 % inib at 10 μM” value came to 0%. Moreover, on PDE4B2, the “PDE4B2 % inib at 10 μM” value was determined as 5%. The “PDE4C2 % inib at 10 μM” value at PDE4C2 was 7%.
With `OC(CN1CCOCC1)Cn1ccc(-c2ccc(OC(F)F)c(OC3CCCC3)c2)n1` (stereo not shown) [XXIIa, 1-{3-[3-(cyclopentyloxy)-4-(difluoromethoxy)phenyl]-1H-pyrazol-1-yl}-3-morpholin-4-ylpropan-2-ol], the “PDE4A4 % inib at 10 μM” value at PDE4A4 was 11%. Moreover, the “PDE4B2 % inib at 10 μM” value at PDE4B2 is given as 26%. The cytotoxicity at 24 h, 100 µM in series [1] turned out to be 0.1 ± 0.36%. The “DNA damage (γ-H2AX)” value in the series on HTLA cells was “not observed”. Moreover, the “d2 (discrimination performance)” value in [6] (0.0003 mg/kg) was 0.02 (0.05); in series [6] (0.001 mg/kg), 0.06 (0.05); in series [6] (0.003 mg/kg, p < 0.001 vs zero) it was 0.34 (0.05) ^###; in series [6] (0.01 mg/kg), 0.05 (0.03). The “memory function (OLT)” value in series [6] (0.003 mg/kg) is on record as “fully enhance memory function”. Besides, the “memory improvement (OLT)” value in [6] (0.0003, 0.001 and 0.01 mg/kg) is on record as “did not show any memory improvement at all”. Further, the Alternations % was 60.86 ^### % in the series with spatial working memory (0.001 mg/kg), 63.54 ^### % in the series with spatial working memory (0.003 mg/kg) and 61.88 ^### % with spatial working memory (0.01 mg/kg). The Time anesthetized was 112.28% in [7] (0.003 mg/kg), 109.52% in series [7] (0.03 mg/kg), 107.45% in series [7] (0.3 mg/kg) and 91.22% in series [7] (3.0 mg/kg). For the same compound, the emetic-like effects result in [7] (0.003-3.0 mg/kg, one-way ANOVA n.s.) is given as “does not have emetic-like effects”. Further, the “basal cAMP levels” value in series [4] is recorded as “without affecting the basal cAMP levels”. Also, the AUC0-t is 2330 ng·h/g in series [5] (setting [8]) and 0.861 µg·h/mL in series [5] (setting [11]). Moreover, in series [5] (setting [8]), the t1/2 is 57 min. This compound yielded a Cmax in series [5] (setting [11]) of 0.993 µg/mL. For the same compound, the time to peak (Tmax) in series [5] (setting [11]) was 19.8 min.

Broadly, the IC50 is the concentration that inhibits the measured activity by half. Read a high IC50 as weaker potency. By Cmax is commonly meant the maximum level reached in the sampled fluid or tissue. The term Tmax denotes the time from dosing to the highest level. As a reminder, the half-life is how long it takes for the measured level to halve. Read a low half-life as fast loss. Broadly, the Kp is the ratio of the level in a tissue or fluid to that in plasma or blood. By melting point is commonly meant the temperature, or range, at which the solid turns liquid.
